pIC50: −log10 of the molar value. Structures can show the parent of a compound that is named as a salt. Where two headings read alike, the source gives them in different places.
Columns and labels:
Format in all cases: cell-based
[1] = tested on: SH-SY5Y (human neuroblastoma) cells; experiment: Cell viability, Cell Titer Glo 2.0 assay; conditions: read-out: Viability SHSY5Y.3 GI50
How it was run: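 SH-SY5Y neuroblastoma cells are exposed to test compounds for 72 hours at 37 °C and 5% CO2, with final DMSO held at 0.1%. Cell viability is then measured with the CellTiter-Glo 2.0 assay.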

HTT mRNA [2] = experiment: Splicing RT-qPCR assay (THP), Table 2A
MYB mRNA [3] = experiment: Splicing RT-qPCR assay (THP), Table 2A
MYB mRNA [4] = experiment: Gene panel canonical junction qPCR assay, decrease in CJ mRNA, Table 3
How it was run: (§1)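 A673 cells were plated, left to adhere for 24 h, then dosed; K562 cells were plated in 96- or 384-well format and dosed directly. Both were incubated 24 h at 37 °C with an 11-point 3-fold series (top 10 uM final). Canonical junction mRNA was then read by cDNA synthesis and qPCR.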

HTT mRNA [5] = experiment: as above
How it was run: as §1

[6] = Table 2A (THP), AJ mRNA increase, read-out: HTT AJ (increase in alternative junction mRNA, AC50)
[7] = Table 2A (THP), CJ mRNA decrease, read-out: HTT CJ (decrease in canonical junction mRNA, IC50)
[8] = Table 2A (THP), AJ mRNA increase, read-out: MYB AJ (increase in alternative junction mRNA, AC50)
[9] = Table 2A (THP), CJ mRNA decrease, read-out: MYB CJ (decrease in canonical junction mRNA, IC50)
[10] = decrease in canonical junction (CJ) mRNA, gene panel qPCR, Table 3
[11] = Table 2A, THP, HTT alternative junction (AJ) mRNA, read-out: HTT AJ (AC50, increase in alternative junction mRNA)
[12] = Table 2A, THP, HTT canonical junction (CJ) mRNA, read-out: HTT CJ (IC50, decrease in canonical junction mRNA)
[13] = Table 2A, THP, MYB alternative junction (AJ) mRNA, read-out: MYB AJ (AC50, increase in alternative junction mRNA)
[14] = Table 2A, THP, MYB canonical junction (CJ) mRNA, read-out: MYB CJ (IC50, decrease in canonical junction mRNA)
[15] = decrease in CJ mRNA levels, canonical junction qPCR, gene panel

GI50 [1]	pIC50 (HTT mRNA [2]; [7])	pIC50 (MYB mRNA [3]; [9])	pIC50 (MYB mRNA [4]; [10])	pIC50 (HTT mRNA [5]; [10])	pIC50 (HTT mRNA [2]; [12])	pIC50 (MYB mRNA [3]; [14])	pIC50 (MYB mRNA [4]; [15])	pIC50 (HTT mRNA [5]; [15])	Structure (SMILES)	AC50 (HTT mRNA [2]; [6])	AC50 (MYB mRNA [3]; [8])	AC50 (HTT mRNA [2]; [11])	AC50 (MYB mRNA [3]; [13])
1 to 10 µM	< 5.00	5.00 to 6.00	5.00 to 6.00	< 5.00	–	–	–	–	CCNC1(C)CCN(c2ccc(C(=O)Nc3cn4cc(C)nc(C)c4c3F)c3nn(C)cc23)CC1 [Compound 571, 4-[4-(ethylamino)-4-methyl-1-piperidyl]-N-(8-fluoro-1,3-dimethyl-pyrrolo[1,2-a]-pyrazin-7-yl)-2-methyl-indazole-7-carboxamide]	> 10 µM	1 to 10 µM	–	–
> 10 µM	5.00 to 6.00	< 5.00	< 5.00	5.00 to 6.00	–	–	–	–	CCNC1CCN(c2ccc(C(=O)Nc3nc4c(C)nc(C)cc4n3C)c3nn(C)cc23)CC1 [Compound 583, 4-[4-(ethylamino)-1-piperidyl]-2-methyl-N-(1,4,6-trimethyl-imidazo[4,5-c]pyridin-2-y1)-indazole-7-carboxamide]	1 to 10 µM	> 10 µM	–	–
1 to 10 µM	< 5.00	6.00 to 7.00	6.00 to 7.00	< 5.00	–	–	–	–	COc1cc2nn(C)cc2cc1NC(=O)c1ccc(N2CC[C@@H]3CNCC[C@@H]32)c2cn(C)nc12 [Compound 515]	1 to 10 µM	0.1 to 1 µM	–	–
1 to 10 µM	–	–	–	–	< 5.00	< 5.00	< 5.00	< 5.00	Cc1cn2cc(NC(=O)c3ccc(N4CCC(NC5CC5)CC4)c4cn(C)nc34)nc2c(CNc2nccs2)n1 [Compound 860]	–	–	> 10 µM	> 10 µM
1 to 10 µM	5.00 to 6.00	5.00 to 6.00	5.00 to 6.00	5.00 to 6.00	–	–	–	–	Cc1cn2cc(NC(=O)c3ccc(N4CC(C5CCNCC5)C4)c4cn(C)nc34)nc2c(C)n1 [Compound 499]	1 to 10 µM	1 to 10 µM	–	–
> 10 µM	–	–	–	–	< 5.00	5.00 to 6.00	5.00 to 6.00	< 5.00	Cn1cc2cc(NC(=O)c3ccc(N4CCC(NC5CC5)CC4)c4cn(C)nc34)cc(CNc3cn[nH]c3)c2n1 [Compound 883]	–	–	> 10 µM	1 to 10 µM
1 to 10 µM	5.00 to 6.00	6.00 to 7.00	6.00 to 7.00	5.00 to 6.00	–	–	–	–	C#CCCC1(CCN2CCN(c3ccc(C(=O)Nc4cc(F)c5nc(C)cn5c4)c4nn(C)cc34)CC2)N=N1 [Compound 376, 4-(4-(2-(3-(but-3-yn-1-yl)-3H-diazirin-3-yl)ethyl)piperazin-1-yl)-N-(8-fluoro-2-methyl-imidazo-[1,2-a]pyridin-6-yl)-2-methyl-2H-indazole-7-carboxamide bis(2,2,2-trifluoroacetate)]	> 10 µM	0.1 to 1 µM	–	–
> 10 µM	< 5.00	< 5.00	< 5.00	< 5.00	–	–	–	–	CCNC1CCN(c2ccc(C(=O)Nc3cc(C(=O)O)c4nc(C)cn4c3)c3nn(C)cc23)CC1 [Compound 318, 6-[[4-[4-(ethylamino)-1-piperidyl]-2-methyl-indazole-7-carbonyl]amino]-2-methyl-imidazo[1,2-a]pyridine-8-carboxylic acid 2,2,2-trifluoroacetic acid]	> 10 µM	> 10 µM	–	–
1 to 10 µM	5.00 to 6.00	6.00 to 7.00	6.00 to 7.00	5.00 to 6.00	–	–	–	–	Cc1cn2cc(NC(=O)c3ccc(N4CCC(N[C@@H]5C[C@H]5O)CC4)c4cn(C)nc34)cc(F)c2n1 [Compound 370, N-(8-fluoro-2-methylimidazo[1,2-a]pyridin-6-yl)-4-(4-(((1R,2R)-2-hydroxycyclopropyl)amino)piperidin-1-yl)-2-methyl-2H-indazole-7-carboxamide hydrochloride]	1 to 10 µM	< 0.1 µM	–	–
> 10 µM	–	–	–	–	< 5.00	< 5.00	< 5.00	< 5.00	Cc1cn2cc(NC(=O)c3ccc(N4CCC(NC5CC5)CC4)c4cn(C)nc34)nc2c(CNC(N)=O)n1 [Compound 829]	–	–	> 10 µM	> 10 µM
> 10 µM	< 5.00	< 5.00	< 5.00	< 5.00	–	–	–	–	COc1cc2nn(C)cc2cc1NC(=O)c1ccc(N2CC(C3CNC3)C2)c2cn(C)nc12 [Compound 509]	> 10 µM	> 10 µM	–	–
> 10 µM	< 5.00	< 5.00	< 5.00	< 5.00	–	–	–	–	COc1cc2nn(C)cc2cc1C(=O)Nc1ccc(N2CCNCC2)c2cn(C)nc12 [Compound 489, 6-methoxy-2-methyl-N-(2-methyl-4-piperazin-1-yl-indazol-7-yl)-indazole-5-carboxamide]	> 10 µM	> 10 µM	–	–
> 10 µM	–	–	–	–	< 5.00	5.00 to 6.00	5.00 to 6.00	< 5.00	CCNC1CCN(c2ccc(C(=O)Nc3cn4cc(C)nc(CNS(C)(=O)=O)c4n3)c3nn(C)cc23)CC1 [Compound 884]	–	–	> 10 µM	1 to 10 µM
> 10 µM	< 5.00	5.00 to 6.00	5.00 to 6.00	< 5.00	–	–	–	–	CC(=O)NCc1nc(C)cn2cc(NC(=O)c3c(F)cc(N4CCC(NC5CC5)CC4)c4cn(C)nc34)nc12 [Compound 400, N-(8-(acetamido-methyl)-6-methylimidazo [1,2-a]-pyrazin-2-yl)-4-(4-(cyclopropylamino)-piper-idin-1-yl)-6-fluoro-2-meth-yl-2H-indazole-7-carbox-amide 2,2,2-trifluoro-acetate]	> 10 µM	1 to 10 µM	–	–
0.1 to 1 µM	–	–	–	–	6.00 to 7.00	> 7.00	> 7.00	6.00 to 7.00	CCNC1CCN(c2ccc(C(=O)Nc3cc4cn(C)nc4cc3OC)c3nc(C)cn23)CC1 [Compound 628, 5-[4-(ethylamino)-1-piperidyl]-N-(6-methoxy-2-methyl-indazol-5-yl)-2-methyl-imidazo[1,2-a]pyridine-8-carboxamide]	–	–	0.1 to 1 µM	< 0.1 µM
1 to 10 µM	6.00 to 7.00	> 7.00	> 7.00	6.00 to 7.00	–	–	–	–	CCNC1CCN(c2cc(F)c(C(=O)Nc3cc4cn(C)nc4cc3OC)c3nn(C)cc23)CC1 [Compound 387, 4-[4-(ethyl-amino)-1-piperidyl]-6-fluoro-N-(6-methoxy-2-methyl-indazol-5-yl)-2-methyl-indazole-7-carboxamide]	0.1 to 1 µM	< 0.1 µM	–	–
< 0.1 µM	> 7.00	> 7.00	> 7.00	> 7.00	–	–	–	–	CCNC1CCN(c2cc(F)c(C(=O)Nc3cn4cc(C)nc4c(F)c3OCC)c3nn(C)cc23)CC1 [Compound 343, N-(7-ethoxy-8-fluoro-2-methylimidazo [1,2-a]pyridin-6-yl)-4-(4-(ethylamino)piperidin-1-yl)-6-fluoro-2-methyl-2H-indazole-7-carboxamide hydrochloride]	< 0.1 µM	< 0.1 µM	–	–
> 10 µM	–	–	–	–	< 5.00	< 5.00	< 5.00	< 5.00	Cc1cn2cc(NC(=O)c3ccc(N4CCCC(N)C4)c4cn(C)nc34)nc2c(CNS(C)(=O)=O)n1 (stereo not drawn) [Compound 866]	–	–	> 10 µM	> 10 µM
1 to 10 µM	< 5.00	< 5.00	< 5.00	< 5.00	–	–	–	–	Cc1cc2[nH]c(NC(=O)c3ccc(N4CCC(NC5CC5)CC4)c4cn(C)nc34)nc2c(C)n1 [Compound 582, 4-[4-(cyclopropylamino)-1-piperidyl]-N-(4,6-dimethyl-1H-imidazo[4,5-c]pyridin-2-yl)-2-methyl-indazole-7-carboxamide]	> 10 µM	> 10 µM	–	–
1 to 10 µM	–	–	–	–	< 5.00	5.00 to 6.00	5.00 to 6.00	< 5.00	Cn1cc2cc(NC(=O)c3ccc(N4CCC(NC5CC5)CC4)c4cn(C)nc34)cc(CO)c2n1 [Compound 793]	–	–	> 10 µM	1 to 10 µM
> 10 µM	< 5.00	< 5.00	< 5.00	< 5.00	–	–	–	–	CCNC1CCN(c2cc(F)c(C(=O)Nc3cn4c(N)c(C)nc4c(F)c3OC)c3nn(C)cc23)CC1 [Compound 310, N-(3-amino-8-fluoro-7-methoxy-2-methyl-imidazo[1,2-a]pyridin-6-yl)-4-[4-(ethylamino)-1-piperidyl]-6-fluoro-2-methyl-indazole-7-carboxamide]	> 10 µM	> 10 µM	–	–
